In US8114895B2, “Use of bipyridine compound ‘Caerulomycin A’ derivatives and analogs thereof as immunosuppressive agents” (Council of Science and Industrial Research, priority 2005, dated 2012):

How the values were obtained:
CD4^+ T cells = experiment: CD28, CTLA-4 and LFA-1 expression on T cells by flow cytometry; assay type: cell-based
Experimental: CD28 and CTLA-4 expression was detected on the surface of the resting and ConA activated CD4^+ T cells by flow cytometric analysis. Briefly, the splenocytes (3×10^6 cells/well) were activated with OVA (200 μg/ml) or ConA (1 μg/ml and 2 μg/ml) and were incubated in the presence of different concentrations of Caerulomycin A (0.0125-0.45 μg/ml). The cultures were harvested after 24, 48, 72 and 96 h and cells were stained for the expression of CD4, CD28 and CTLA-4. Further, cultures were also set where Caerulomycin A was added after 24 h and 48 h of the initiation of cultures and the cells were stained after incubating further for 24 h. The cells were harvested and 3-color staining was done using PE (Phycoerythrin) conjugated anti-CD4 Ab, FITC (Fluorescein isothiocyanate) conjugated anti-CTLA-4, and Cy (Cy-chrome) conjugated CD28 Abs. The cells from each suspension were acquired on CELLQUEST software of FACScan (Becton Dickinson, Mountain View, Calif.). […] The analysis for the mean fluorescence intensity (MFI) was done on histograms where abcissa and ordinate denote log fluorescence and relative cell count, respectively.
Examples establishing the role of Caerulomycin A [isolated from a novel species of Actinoalloteichus] in inducing immunosuppression based on the following: • Splenocytes of BALB/c mice were stimulated with either ConA (1 μg/ml and 2 μg/ml) or LPS (5 μg/ml and 10 μg/ml) and were cultured with different concentrations of Caerulomycin A (0.0003-0.1 μg/ml). […] Radioactivity incorporated was measured by liquid scintillation counting. • Antigen ovalbumin (100 μg/ml) emulsified in Freund's complete adjuvant was injected in a group consisting of 5 BALB/c mice. […] Radioactivity incorporated was measured by liquid scintillation. The culture supernatants were collected after 48 h and cytokines were measured by ELISA. • Immunosuppressive effect of different doses of Caerulomycin A was monitored on naïve CD4^+ T cells, antigen reactive CD4^+ T cells, Th2 clone and Th1 hybridoma. […]

antigen specific T cells = experiment: In vivo proliferation of antigen specific T cells (OVA-primed mice injected with drug, splenocytes cultured ex vivo); set-up: species or system BALB/c mice; conditions: for proliferation of cells from antigen-primed animals injected with drug versus animals not administered drug: 25-100 μg/mice/day i.p. for 7 days
Experimental: FIG. 1: Different groups, each comprising five animals were immunized with OVA, followed by CaeA administration daily for 7 days before mice were sacrificed. Splenocytes (2×10^5 cells/well) were isolated and cultured in vitro with 100 μg/ml OVA and varied doses of CaeA. After 72 h, [^3H]-thymidine was added, and its incorporation was measured 16 h later.
FIG. 2: In another set of experiment, three different groups were immunized with OVA followed by administration of CaeA (25 μg/mice) in one of the group and Alcohol (vehicle control) in another group, daily for 7 days before mice were sacrificed. Splenocytes (2×10^5 cells/well) were isolated and cultured in vitro alone or with OVA 100 and 200 μg/ml (1.2). Each point represents the mean±SEM of triplicate determinations from one of the three representative experiments.
OVA (2 mg/ml) was dissolved in PBS (0.01 M, pH 7.2) and emulsified in Freund's complete adjuvant (FCA). Emulsion (100 μl) was then injected intraperitoneally (i.p.) in 7 groups, comprising 5 BALB/c mice in each set. Four groups of animals were injected intraperitoneally daily with Caerulomycin A (25, 50, 75, 100 μg/100 μl/mice). The control groups were immunized intraperitoneally with 100 μl each of PBS and ethanol-PBS. After seven days, mice were sacrificed and splenocytes were isolated and pooled for in vitro proliferation.
Ovalbumin (3 mg/ml) was dissolved in PBS (pH 7.2) and emulsified in Freund's complete adjuvant (FCA). Emulsion (100 μl) was then injected intraperitoneally (i.p.) in different groups, comprising 5 BALB/c mice in each set. Four groups of animals were injected intraperitoneally daily with caerulomycin A (25, 50, 75, 100 μg/100 μl/mice). The control groups were immunized intraperitoneally with ethanol-PBS.
After seven days, mice were sacrificed and splenocytes were pooled and used for proliferation assays. Splenocytes (2×10^5 cells/well) were cultured with OVA (100 μg/ml) in 200 μl RPMI/FCS-10% medium and with various concentrations of caerulomycin A (0.1-0.0003 μg/ml). The control cultures consisting of splenocytes incubated with different concentrations of caerulomycin A (no OVA), OVA and medium were also kept. After 72 h, the cultures were pulsed with 1 μCi of [^3H]-thymidine and harvested 14 h later. Radioactivity incorporated was measured by liquid scintillation counting and data are expressed as mean counts per minute (cpm).
The mice were administered with different doses of caerulomycin A for 7 days (FIG. 1). The animals were sacrificed and splenocytes were cultured in vitro with antigen and different concentrations of caerulomycin A (0.00625-0.10 μg/ml).

[1] = CD4+ T cells, Caerulomycin A 0.0125-0.45 μg/ml

COc1cc(/C=N/O)nc(-c2ccccn2)c1 [Caerulomycin A, (E)-4-methoxy-2,2′-bipyridine-6-carbaldehyde oxime]
expression or percentage of LFA-1 positive cells (CD4^+ T cells): did not exhibit any significant change | expression and percentage of CD28 (CD4^+ T cells; [1]): decreased the expression and percentage | expression and percentage of CTLA-4 positive cells (CD4^+ T cells; [1]): significantly enhanced the expression but also the percentage | growth of cells from injected mice versus PBS-ethanol animals (antigen specific T cells; 25 μg/mice/day for 7 days, FIG. 2): significant level of retardation in the growth | proliferation of cells from antigen-primed animals injected with drug versus animals not administered drug (antigen specific T cells; FIG. 1): substantial inhibition | proliferation of cells from antigen-primed animals injected with drug versus animals not administered drug (antigen specific T cells; FIG. 1, listed as caerulomycin A): substantial inhibition in the proliferation | proliferation of cells from treated animals incubated in vitro with drug (antigen specific T cells; cells incubated with 0.10 μg/ml of caerulomycin A, FIG. 1): Nearly complete inhibition | optimum dosage required in vivo (antigen specific T cells; mouse, in vivo): 5.0 mg/kg/body wt
